Results on three compounds are retold here after patent publication US20120328696A1, “ANTI-PARKINSONIAN COMPOUND ACETYLSALICYLIC ACID MALTOL ESTER” (Hutecs Korea Pharmaceutical Co., Ltd., priority 2008, published 2012).

Format in all cases: in vivo
Test [1] deals with glial cell line-derived neurotrophic factor (GDNF). Kind of test: Striatal GDNF expression after MA (western blot). As to conditions: p.o.; AME 50, EBS 20, rottlerin 20 mg/kg; MA 8 mg/kg i.p. x4; GPx-1 (+/+) and (−/−) mice. The procedure: (§1) The mice received four times of MA (8 mg/kg, ip) or saline as a 2 hr-time interval. Chemicals (AME, EBS, and PKC inhibitors) were administrated for 5 consecutive days (twice daily), and were given 2 times at 4 hr and 30 min before the first MA injection as shown in the experimental schedule. Animals were sacrificed at 4 hrs and 3 days after the final MA administration.
(§2) The western blot assays was performed as described previously (Kim et al., 2003). Tissues were homogenized in lysis buffer, containing 200 mM Tris HCl (pH 6.8), 1% SDS, 5 mM EGTA (ethylene glycol tetraacetic acid), 5 mM EDTA (ethylenediaminetetraacetic acid), 10% glycerol, 1× phosphatase inhibitor cocktail I, 1× protease inhibitor cocktail. Lysate was centrifuged at 12,000×g for 30 min and supernatant fraction was used for Western blot analysis. Proteins (20-50 ug/lane) were separated by 6%, 8%, 10% or 15% sodium dodecyl sulfate-polyacrylamide gel electrophoresis and transferred onto the PVDF membranes. Following transfer, the membranes were preincubated with 5% non-fat milk and incubated overnight at 4° C. with primary antibody against β-actin (1:50000, Sigma, St. Louis, Mo., USA), TH (1:5000, Chemicon), TH phosphor-Ser 19 (1:1000, Chemicon,), TH phosphor-Ser 31 (1:500, Chemicon), TH phosphor-Ser 40 (1:500, Chemicon), F4/80 (1:500, Serotec), GPx1 (1:2500, AbFrontier), PKC (1:5000, Santa Cruz biotechnology, Santa Cruz, Calif., USA), p53 (1:5000, Cell signaling, Beverly, Mass., USA), MDM2 (1:1000, BD Pharmingen, San Jose, Calif., USA), MDM2 phospho-Ser 166 (1:1000, cell signaling), BDNF (1:500, Chemicon), GDNF (1:250, Santa Cruz), COX-2 (1:2000, Cayman, Ann Arbor, MC, USA), IL-6 (1:2000, Abcam, Cambridge, Mass., USA), TNF-a (1:1000, R&D Systems, Mckinley place NE, NM, USA), IFN-γ (1:500, Chemicon) or Iba-1 (1:500, Wako, Osaka, Japan). And then, membranes were incubated with HRP-conjugated secondary anti-rabbit IgG (1:1000, GE healthcare, Piscataway, N.J., USA), anti-mouse IgG (1:1000, Sigma) or anti-goat IgG (1:1000, Sigma) for 2 h. […]
In general terms: In western blotting, separated proteins are transferred to a membrane and probed.

Test [2] relates to Iba-1 (a marker of microgliosis). Kind of test: Iba-1 expression after MA (western blot). The conditions noted are these: p.o.; AME 50, EBS 20, rottlerin 20 mg/kg; MA 8 mg/kg i.p. x4; GPx-1 (+/+) and (−/−) mice. The method, then: as §1, §2
Test [3] relates to F4/80 (a marker of microgliosis). The test is described as follows: F4/80 expression after MA (western blot). The conditions noted are these: p.o.; AME 50, EBS 20, rottlerin 20 mg/kg; MA 8 mg/kg i.p. x4; GPx-1 (+/+) and (−/−) mice. The procedure: as §1, §2
For the next test, the system named is GPx-1. Kind of test: Striatal glutathione peroxidase (GPx) activity after MA. As to conditions: p.o.; AME 50, EBS 20, rottlerin 20 mg/kg; MA 8 mg/kg i.p. x4; GPx-1 (+/+) mice. The procedure:
as §1
GPx were immediately measured from dissected striatal tissues. The tissues were sonicated in ice-cold 50 mM potassium phosphate buffer (pH 7.4, containing 2 mM EDTA), and were centrifuged at 11,000×g for 15 min at 4° C. The resulting supernatants were collected and the protein concentrations were quantified with the Quant-iT assays, using the Qubit™ fluorometer (Invitrogen, Carlsbad, Calif., USA). Cellular GPx activity was measured by the method of Paglia and Valentine (1967) with minor modification (Shin et al., 2008). The incubation mixture contained 1 mM glutathione, 0.2 mM NADPH, and 1.4 IU glutathione reductase in 0.05 M potassium phosphate buffer, pH 7.0. The reaction was initiated by the simultaneous addition of supernatant (0.3-0.8 mg protein) and 0.25 mM H2O2. The change in absorbance at 340 nm was followed by for 4.5 min and 1 UI of GPx activity was defined as the amount required to oxidize 1 μM NADPH/min, based on the molar absorptivity of […] for NADPH.

A further test relates to PKCδ. Kind of test: Striatal PKCδ expression after MA (western blot). The conditions noted are these: MA 8 mg/kg i.p. x4, GPx-1 (+/+) and (−/−) mice; for effect on MA-induced striatal PKCδ expression: p.o., AME 25 or 50, EBS 10 or 20, rottlerin 10 or 20 mg/kg. The method, then:
as §1
Tissues were homogenized in lysis buffer, containing 200 mM Tris HCl (pH 6.8), 1% SDS, 5 mM EGTA (ethylene glycol tetraacetic acid), 5 mM EDTA (ethylenediaminetetraacetic acid), 10% glycerol, 1× phosphatase inhibitor cocktail I, 1× protease inhibitor cocktail. Lysate was centrifuged at 12,000×g for 30 min and supernatant fraction was used for Western blot analysis. […] And then, membranes were incubated with HRP-conjugated secondary anti-rabbit IgG (1:1000, GE healthcare, Piscataway, N.J., USA), anti-mouse IgG (1:1000, Sigma) or anti-goat IgG (1:1000, Sigma) for 2 h. Subsequent visualization was performed using enhanced chemiluminescence system (ECL Plus®, GE healthcare).

Another test has as its system protein carbonyl. Kind of test: Striatal protein oxidation (protein carbonyl) after MA. The conditions noted are these: biochemical assay and slot blot; striatum, 3 days after final MA; p.o.; AME 50, EBS 20, rottlerin 20 mg/kg; GPx-1 (+/+) and (−/−) mice. The procedure:
as §1
The amount of oxidized proteins was measured using the Oxyblot kit (Chemicon International, CA) according to the instruction provided by manufacturer. Briefly, the protein carbonyl content was measured by first forming labeled protein hydrazone derivatives using 2,4-dinitrophenylhydrazide (DNP). The DNP-derivatized protein samples were transferred onto PVDF membrane by slot blot apparatus (GE Healthcare). Blots were then incubated with primary antibody specific to the DNP moiety, followed by incubation with a HRP-conjugated secondary antibody. Subsequent visualization was performed using enhanced chemiluminescence system (ECL Plus®, GE healthcare) (Gemma et al., 2004).
The extent of protein carbonyl oxidation in the striatum was assessed by measuring the content of protein carbonyl groups, which was determined spectrophotometrically with the 2,4-dinitrophenyl-hydrazine (DNPH)-labeling procedure (Kim et al., 1997b, 2000b, 2002) as described by Oliver et al. (1987). The results were expressed as nmol of DNPH incorporated/mg protein based on the extinction coefficient for aliphatic hydrazones of 21 mM^−1 cm^−1. Protein was measured using the BCA protein assay reagent (Pierce, Rockford, Ill., USA).

For the compound `CC(=O)Oc1ccccc1C(=O)Oc1c(C)occc1=O` [AME, 3-(2-methyl-4-pyronyl)-2-acetyloxybenzoate], in test [1], the “effect on MA-induced reduction in GDNF expression” value (“effect on MA-induced reduction” for short) was “significantly attenuated these reductions”. Further, in test [2], the “effect on MA-induced increase in Iba-1 expression” value is “significantly and consistently attenuating effects”. Also, in test [3], the “effect on MA-induced increase in F4/80 expression” value is “significantly and consistently attenuating effects”. The “effect on MA-induced decrease in striatal GPx-1 activity” value (“effect on MA-induced decrease” for short) in the test with GPx-1 is given as “inhibited MA-induced decrease”. The “effect on MA-induced striatal PKCδ expression” value with PKCδ was “significantly reduced MA-induced the PKCδ- and cleaved PKCδ-expressions in a dose-related manner”. For the same compound, in the test with protein carbonyl, the “effect on MA-induced increase in protein oxidation” value is “significantly attenuated”.

For the compound `O=c1c2ccccc2[se]n1-c1ccccc1` [EBS, 2-phenyl-1,2-benzisoselenazol-3(2H)-one], the “effect on MA-induced reduction” value in test [1] is on record as “significantly attenuated these reductions”. In test [2], the “effect on MA-induced increase in Iba-1 expression” value is “significantly and consistently attenuating effects”. Further, the “effect on MA-induced increase in F4/80 expression” value in test [3] was “significantly and consistently attenuating effects”. Also, in the test with GPx-1, the “effect on MA-induced decrease” value is “inhibited MA-induced decrease”. For the same compound, in the test with PKCδ, the “effect on MA-induced striatal PKCδ expression” value was “significantly reduced MA-induced the PKCδ- and cleaved PKCδ-expressions in a dose-related manner”. Besides, in the test with protein carbonyl, the “effect on MA-induced increase in protein oxidation” value is given as “significantly attenuated”.

As to `CC(=O)c1c(O)c(C)c(O)c(Cc2c(O)c3c(c(C(=O)/C=C/c4ccccc4)c2O)OC(C)(C)C=C3)c1O` [rottlerin], the “effect on MA-induced reduction” value in test [1] is on record as “significantly attenuated these reductions”. The “effect on MA-induced increase in Iba-1 expression” value in test [2] is “significantly and consistently attenuating effects”. Further, in test [3], the “effect on MA-induced increase in F4/80 expression” value was “significantly and consistently attenuating effects”. The “effect on MA-induced decrease” value in the test on GPx-1 is on record as “inhibited MA-induced decrease”. In addition, in the test with PKCδ (intra-striatal), the “effect on MA-induced increase in striatal PKCδ expression” value was “attenuated the MA-induced increases in PKCδ expressions in a dose-dependent manner”. Further, in the test with PKCδ, the “effect on MA-induced striatal PKCδ expression” value was “significantly reduced MA-induced the PKCδ- and cleaved PKCδ-expressions in a dose-related manner”. The “effect on MA-induced increase in protein oxidation” value in the test on protein carbonyl is “significantly attenuated”.
